Test [1] addresses recombinant SARS-CoV-2 Main protease (Mpro) (Severe acute respiratory syndrome coronavirus 2 (2019-nCoV) (SARS-CoV-2), UniProt P0DTD1). As to the kind of experiment: Cov Mpro Biochemical IC50 Assay.
The subject of a further test is SARS-CoV-2-NLuc. In words: microbe, parasite or virus in culture. It is filed as cell-based, SARS Coronavirus 2.
[2] abbreviates: recombinant SARS-CoV-2 Mpro, fluorogenic peptide substrate, read-out: MPro IC50.
[3] abbreviates: Severe acute respiratory syndrome coronavirus, 48 h, read-out: MPro EC50.
[4] abbreviates: recombinant SARS-CoV-2 Mpro 7.5 nM, fluorogenic peptide substrate 40 μM, read-out: MPro IC50.
Where [5] appears, read: Severe acute respiratory syndrome coronavirus, 48 h; read-out: MPro EC50.

Read-outs that look alike come from different tables or passages of the source. Where only a bound is given, the exact number is not on record here.

As to `COc1cc(-c2ccc3c(=O)n(-c4cncc5ccccc45)c(=O)[nH]c3c2)c(Cl)cc1F` [Example 299], the half-inhibitory concentration (IC50) (in general, the concentration needed to halve the response being measured) in test [1] (setting [2]) was 72.4 nM. In addition, the EC50 (in general, the midpoint of the concentration-response curve) in the test with SARS-CoV-2-NLuc (setting [3]) stood at 36.1 nM.
`N#CCCn1c(=O)n(-c2cncc3ccccc23)c(=O)c2sc(-c3cc(F)ccc3Cl)cc21` [Example 831]: the IC50 in test [1] (setting [4]) is 8.53 nM. Also, the half-maximal effective concentration (EC50) with SARS-CoV-2-NLuc (setting [3]) is 7.19 nM.
Turning to `COc1ccc2cncc(-n3c(=O)[nH]c4cc(-c5ccccc5Cl)sc4c3=O)c2c1` [Example 175, 6-(2-chlorophenyl)-3-(6-methoxyisoquinolin-4-yl)thieno[3,2-d]pyrimidine-2,4(1H,3H)-dione], the 50% inhibitory concentration (IC50) in test [1] (setting [2]) came out at 4.68 nM. Moreover, the EC50 in the test on SARS-CoV-2-NLuc (setting [3]) stood at 26.6 nM.
The corresponding values for `O=c1[nH]c2cc(-c3ccc4sccc4c3)ccc2c(=O)n1-c1cncc2ccccc12` [Example 49] are more than 100000 nM and 12800 nM.
With `Cc1nn(C)cc1-c1cc2[nH]c(=O)n(-c3cncc4ccccc34)c(=O)c2s1` [Example 363], the half-maximal inhibitory concentration (IC50) in test [1] (setting [2]) worked out at 129 nM. In the test on SARS-CoV-2-NLuc (setting [3]), the EC50 is 785 nM.
As for `Cc1cc(-c2cccc(Cl)c2-c2cc3[nH]c(=O)n(-c4cncc5ccccc45)c(=O)c3s2)cn2ncnc12` [Example 113], in test [1] (setting [2]), the 50% inhibitory concentration (IC50) was found to be 7.31 nM. Also, the EC50 in the test with SARS-CoV-2-NLuc (setting [3]) is less than 7.31 nM.
In the case of `COc1cc(-c2cc3c(s2)c(=O)n(-c2cncc4ccccc24)c(=O)n3CCC#N)c(Cl)cc1F` [Example 632, 3-(6-(2-chloro-4-fluoro-5-methoxyphenyl)-3-(isoquinolin-4-yl)-2,4-dioxo-3,4-dihydrothieno[3,2-d]pyrimidin-1(2H)-yl)propanenitrile], the IC50 in test [1] (setting [4]) was 6.13 nM. Besides, the EC50 with SARS-CoV-2-NLuc (setting [5]) came to 3.11 nM.
On to `COc1cc(-c2cc3c(s2)c(=O)n(-c2cncc4ccc(C#N)cc24)c(=O)n3CCC#N)c(Cl)cc1F` [Example 1062], for which, in test [1] (setting [4]), the 50% inhibitory concentration (IC50) came to 4.87 nM. Besides, in the test on SARS-CoV-2-NLuc (setting [3]), the EC50 was 5.42 nM.
As to `COc1cc(-c2cc3c(s2)c(=O)n(-c2cncc4ccc(F)cc24)c(=O)n3CCC#N)c(Cl)cc1F` [Example 945], the 50% inhibitory concentration (IC50) in test [1] (setting [4]) was 8 nM. The concentration for a half-maximal effect (EC50) in the test on SARS-CoV-2-NLuc (setting [3]) stood at 8.65 nM.
Consider `CC(C)c1cncc(-n2c(=O)[nH]c3cc(-c4ccccc4Cl)sc3c2=O)c1` [Example 376], for which, in test [1] (setting [2]), the IC50 was 43300 nM. Also, the concentration for a half-maximal effect (EC50) in the test on SARS-CoV-2-NLuc (setting [3]) turned out to be 47300 nM.
As to `COc1ccc(Cl)c(-c2ccc3c(=O)n(-c4cncc5ccc(F)cc45)c(=O)[nH]c3c2)c1` [Example 371], the IC50 in test [1] (setting [2]) was determined as 55.9 nM. Also, the EC50 in the test with SARS-CoV-2-NLuc (setting [5]) was found to be 108 nM.
Regarding `COc1cc(-c2cc3[nH]c(=O)n(-c4cncc5cnn(CC(F)(F)F)c45)c(=O)c3s2)c(Cl)cc1F` [Example 507], the IC50 in test [1] (setting [4]) turned out to be 18.8 nM. Besides, the EC50 in the test on SARS-CoV-2-NLuc (setting [3]) is 39.2 nM.
As for `Cn1cc(-c2cccc(Cl)c2-c2cc3[nH]c(=O)n(-c4cncc5ccccc45)c(=O)c3s2)c(C(F)(F)F)n1` [Example 280, 6-(2-chloro-6-(1-methyl-3-(trifluoromethyl)-1H-pyrazol-4-yl)phenyl)-3-(isoquinolin-4-yl)thieno[3,2-d]pyrimidine-2,4(1H,3H)-dione], the half-maximal inhibitory concentration (IC50) in test [1] (setting [2]) amounted to 5.97 nM. Besides, the EC50 in the test with SARS-CoV-2-NLuc (setting [3]) is 15.9 nM.
`COc1cc(-c2cc3[nH]c(=O)n(-c4cncc5sc(C(N)=O)c(C)c45)c(=O)c3s2)c(Cl)cc1F` [Example 1049]: in test [1] (setting [4]), the IC50 worked out at 3.16 nM. Moreover, the EC50 in the test with SARS-CoV-2-NLuc (setting [3]) is 40.9 nM.
Regarding `C#Cc1ccccc1-c1ccc2c(=O)n(-c3cncc4ccccc34)c(=O)[nH]c2c1` [Example 28], the IC50 in test [1] (setting [2]) turned out to be 340 nM. The EC50 with SARS-CoV-2-NLuc (setting [3]) was 536 nM.
On to `Cn1cnc(COc2cccc(Cl)c2-c2ccc3c(=O)n(-c4cncc5ccccc45)c(=O)[nH]c3c2)n1` [Example 88], for which the IC50 in test [1] (setting [2]) came to 233 nM. Moreover, in the test on SARS-CoV-2-NLuc (setting [3]), the EC50 was determined as 630 nM.
Take `CCn1ncc2cncc(-n3c(=O)c4sc(-c5cc(OC)c(F)cc5Cl)cc4n(CCC#N)c3=O)c21` [Example 910]: in test [1] (setting [4]), the half-inhibitory concentration (IC50) stood at 4.34 nM. Besides, the EC50 with SARS-CoV-2-NLuc (setting [3]) amounted to 4.35 nM.
In the case of `Cn1nnc2cncc(-n3c(=O)c4sc(-c5ccccc5Cl)cc4n(CCC#N)c3=O)c21` [Example 772], the half-inhibitory concentration (IC50) in test [1] (setting [4]) came to 15.4 nM. Also, in the test on SARS-CoV-2-NLuc (setting [5]), the EC50 was 46.9 nM.
In the case of `COc1cc(-c2cc3[nH]c(=O)n(-c4cncc5[nH]nc(C(F)(F)F)c45)c(=O)c3s2)c(Cl)cc1F` [Example 1045, 6-(2-chloro-4-fluoro-5-methoxyphenyl)-3-(3-(trifluoromethyl)-1H-pyrazolo[3,4-c]pyridin-4-yl)thieno[3,2-d]pyrimidine-2,4(1H,3H)-dione], the IC50 in test [1] (setting [4]) stood at 141 nM. Also, the EC50 in the test with SARS-CoV-2-NLuc (setting [3]) is more than 1000 nM.
Consider `COc1ccc(Cl)c(-c2cc3[nH]c(=O)n(-c4cncc5ccc(N6CCOCC6=O)cc45)c(=O)c3s2)c1` [Example 573, 6-(2-chloro-5-methoxyphenyl)-3-(6-(3-oxomorpholino)isoquinolin-4-yl)thieno[3,2-d]pyrimidine-2,4(1H,3H)-dione], for which the half-inhibitory concentration (IC50) in test [1] (setting [4]) was found to be 3.26 nM. Also, the concentration giving a half-maximal response (EC50) with SARS-CoV-2-NLuc (setting [5]) was 20.1 nM.
For `COc1ccc(C#N)c(-c2cc3[nH]c(=O)n(-c4cncc5ncsc45)c(=O)c3s2)c1` [Example 484], the 50% inhibitory concentration (IC50) in test [1] (setting [4]) amounted to 38.9 nM. Moreover, the EC50 in the test on SARS-CoV-2-NLuc (setting [3]) amounted to 482 nM.
On to `Cc1c2c(-n3c(=O)c4sc(-c5ccc(F)cc5Cl)cc4n(CCC#N)c3=O)cncc2nn1C` (single isomer, unassigned) [Example 971, 3-(6-(2-chloro-4-fluorophenyl)-3-(2,3-dimethyl-2H-pyrazolo[3,4-c]pyridin-4-yl)-2,4-dioxo-3,4-dihydrothieno[3,2-d]pyrimidin-1(2H)-yl)propanenitrile], for which the IC50 in test [1] (setting [4]) came to 13 nM. Moreover, in the test with SARS-CoV-2-NLuc (read-out: MPro EC50), the EC50 worked out at 55.8 nM.
`COc1ccc2cncc(-n3c(=O)[nH]c4cc(-c5ccccc5Cl)ccc4c3=O)c2c1` [Example 237]: in test [1] (setting [2]), the IC50 amounted to 87 nM. Moreover, the EC50 with SARS-CoV-2-NLuc (setting [3]) came to 143 nM.
On to `COc1cc(-c2cc3c(s2)c(=O)n(-c2cncc4cnn(C)c24)c(=O)n3CCO)c(Cl)cc1F` [Example 1070], for which the IC50 in test [1] (setting [4]) amounted to 19.8 nM. The EC50 with SARS-CoV-2-NLuc (setting [3]) worked out at 30.8 nM.
Consider `COc1cc(-c2ccc3c(=O)n(-c4cncc5ccccc45)c(=O)[nH]c3c2)c(C#N)cc1F` [Example 319], for which the IC50 in test [1] (setting [2]) turned out to be 10.7 nM. Further, the EC50 in the test on SARS-CoV-2-NLuc (setting [3]) came out at 27.9 nM.
For `COc1cc(-c2cc3c(s2)c(=O)n(-c2cncc4nn(C)c(C)c24)c(=O)n3CCC#N)c(Cl)cc1F` [Example 926, 3-(6-(2-chloro-4-fluoro-5-methoxyphenyl)-3-(2,3-dimethyl-2H-pyrazolo[3,4-c]pyridin-4-yl)-2,4-dioxo-3,4-dihydrothieno[3,2-d]pyrimidin-1(2H)-yl)propanenitrile], the half-maximal inhibitory concentration (IC50) in test [1] (setting [4]) was determined as 6.74 nM. Besides, in the test on SARS-CoV-2-NLuc (setting [3]), the EC50 came out at 8.89 nM.
Take `O=c1[nH]c2cc(-c3ccccc3Cl)ccc2c(=O)n1-c1cncc(C(F)(F)F)c1` [Example 578]: the IC50 in test [1] (setting [4]) is more than 50000 nM. Also, in the test on SARS-CoV-2-NLuc (setting [5]), the EC50 is 9870 nM.
`COc1cc(-c2cc3[nH]c(=O)n(-c4cncc5ccn(C)c(=O)c45)c(=O)c3s2)c(Cl)cc1F` [Example 976, 6-(2-chloro-4-fluoro-5-methoxy-phenyl)-3-(6-methyl-5-oxo-2,6-naphthyridin-4-yl)-1H-thieno[3,2-d]pyrimidine-2,4-dione]: the IC50 in test [1] (setting [4]) was determined as 8.07 nM. Moreover, the 50% effective concentration (EC50) with SARS-CoV-2-NLuc (setting [3]) amounted to 15.4 nM.
Take `O=c1c2sc(-c3ccccc3Cl)cc2[nH]c(=S)n1-c1cncc2ccccc12` [Example 176]: in test [1] (MPro IC50, recombinant SARS-CoV-2 Mpro, fluorogenic peptide substrate), the IC50 is 330 nM. Further, the EC50 in the test with SARS-CoV-2-NLuc (setting [5]) is 292 nM.
As to “6-[2-chloro-6-(8-methyl-[1,2,4]triazolo[1,5-a]pyridin-6-yl)phenyl]-3-(6-methoxy-4-isoquinolyl)-1H-thieno[3,2-d]pyrimidine-2,4-dione [Example 565]”, the half-inhibitory concentration (IC50) in test [1] (setting [4]) was found to be 16.5 nM. Further, the EC50 in the test with SARS-CoV-2-NLuc (read-out: MPro EC50) worked out at 58.1 nM.

(Values after patent US20240116946A1 (Gilead Sciences, Inc., priority 2022, published 2024).)
